Molecules are shown by their SMILES. Like-named read-outs stand apart in the source and are kept apart here.

Usually ED50 stands for the dose that gives a 50% effect, or the effect in half of the subjects. A low value points to an effect at a small dose.

For series [1] the following is noted: reported in U.S. Pat. No. 3,527,761 / J. Med. Chem. 14, 1054 (1971); cited from earlier work.
For series [2] the following is noted: reported in U.S. Pat. No. 3,527,761 / J. Med. Chem. 14, 1054 (1971); cited from earlier work. This is another data set of the same source.
Series [3] has as its system apomorphine. The series can be described thus: Antiapomorphine activity in mice (spontaneous motility, Animex). The following applies: Mus musculus, 60 min before apomorphine hydrochloride 0.5 mg/kg s.c., dose for 50% suppression of spontaneous motility of control group over 20 min. The class given is in vivo, mice (male dd-strain). Here is the method:
Antiapomorphine Activity in Mice
Groups of 5 male dd-strain mice were used. Test compounds were orally or intraperitoneally administered and 60 minutes thereafter, 0.5 mg/kg of apomorphine hydrochloride was subcutaneously administered. Immediately thereafter, spontaneous motility of the mice was measured with the aid of Animex (manufactured by Columbus Company, U.S.A.) for 20 minutes. The procedure was repeated three times with respective groups. The dose of test compounds required for 50% suppression of spontaneous motility of control group was graphically intraporated and determined as ED50 value.

Series [4] in a line: Acute toxicity in mice, oral administration. The class given is in vivo. The following applies: 500 mg/kg, 5 days observation, male mice. The text has this:
The acute toxicity of the compounds of the present invention was studied in 5 male mice weighing 30 to 45 g.

The conditions of series [5]: reported; cited from earlier work.
Series [6] is described as follows: antihypertensive activity. The settings on record: according to studies of the present inventors.
For series [7], the system named is apomorphine. As to the kind of experiment: apomorphine-antagonistic activity (studies of the present inventors). The following applies: according to studies of the present inventors.
For series [8] the following is noted: prior art; cited from earlier work.

Turning to `O=C(NC1CCN(CCc2c[nH]c3ccccc23)CC1)c1c[nH]c2ccccc12` [3-{2-[4-(3-indolecarboxamido)-piperidino]ethyl}indole], the antihistaminic activity entry in series [1] is recorded as “antihistaminic activities”. Besides, the antihypertensive activity entry in series [2] is listed as “having antihypertensive”.
For `CCN1CCCC1CNC(=O)c1c(C)[nH]c2ccccc12` (stereo not shown) [Example 1, N-(1-ethyl-2-pyrrolidinylmethyl)-2-methylindole-3-carboxamide], in the series with apomorphine [3] (po), it took a dose of 17 mg/kg to reach the 50% effect level (ED50).
As to `Cc1[nH]c2ccc(F)cc2c1C(=O)NC1CCN(Cc2ccccc2)CC1` [Example 2, N-(1-benzyl-4-piperidyl)-5-fluoro-2-methylindole-3-carboxamide], in series [4], the “mortality (acute toxicity)” value is recorded as “All animals were survived”. This compound showed a 50% effective dose (ED50) with apomorphine [3] (po) of 4.6 mg/kg.
With `O=C(NC1CCN(Cc2ccccc2)CC1)c1c[nH]c2ccc(F)cc12` [Example 3, N-(1-benzyl-4-piperidyl)-5-fluoroindole-3-carboxamide], it took a dose of 9.5 mg/kg to reach the 50% effect level in the series with apomorphine [3] (po) (ED50).
Still for that read-out and setting: the value for `Cc1c(C(=O)NC2CCN(Cc3ccccc3)CC2)c2cc(F)ccc2n1C` [Example 4, N-(1-benzyl-4-piperidyl)-5-fluoro-1,2-dimethylindole-3-carboxamide] was 27 mg/kg; that for `Cc1[nH]c2ccccc2c1C(=O)NC1CCN(Cc2ccccc2)CC1` [Example 7, N-(1-benzyl-4-piperidyl)-2-methylindole-3-carboxamide] was 8.7 mg/kg.
Regarding `O=C(NC1CCN(Cc2ccccc2)CC1)c1c[nH]c2ccccc12` [Example 8, N-(1-Benzyl-4-piperidyl)indole-3-carboxamide], the 50% effect level with apomorphine [3] (po) (ED50) was put at a dose of 7 mg/kg.
Same read-out and setting: the same measure for `CCN1CCCC1CNC(=O)c1c(C)[nH]c2ccc(Cl)cc12` (stereo not shown) [Example 9, 5-Chloro-N-(1-ethyl-2-pyrrolidinylmethyl)-2-methylindole-3-carboxamide]: 30 mg/kg.
`CCN1CCCC1CNC(=O)c1c(C)[nH]c2ccc(F)cc12` (stereo not shown) [Example 10, N-(1-Ethyl-2-pyrrolidinylmethyl)-5-fluoro-2-methylindole-3-carboxamide] registered an ED50 in the series with apomorphine [3] (ip) of 10 mg/kg.
As for `Cc1[nH]c2ccc(F)cc2c1C(=O)NC1CCN(Cc2ccccc2)C1` (stereo not shown) [Example 12, N-(1-Benzyl-3-pyrrolidinyl)-5-fluoro-2-methylindole-3-carboxamide], it took a dose of 5.6 mg/kg to reach the 50% effect level in the series with apomorphine [3] (po) (ED50).
As for `Cc1[nH]c2ccc(F)cc2c1C(=O)NC1CCN(Cc2ccc(Cl)cc2)CC1` [Example 13, N-[1-(p-Chlorobenzyl)-4-piperidyl]-5-fluoro-2-methylindole-3-carboxamide], the ED50 with apomorphine [3] (po) amounted to 5.6 mg/kg.
On the same count and under the same terms, the value for `Cc1[nH]c2ccc(F)cc2c1C(=O)NC1CCN(Cc2ccc(F)cc2)CC1` [Example 14, 5-Fluoro-N-[1-(p-fluorobenzyl)-4-piperidyl]-2-methylindole-3-carboxamide] was 5.2 mg/kg; that for `Cc1[nH]c2ccc(F)cc2c1C(=O)NC1CCN(Cc2cccc(Cl)c2)CC1` [Example 18, N-[1-(m-Chlorobenzyl)-4-piperidyl]-5-fluoro-2-methylindole-3-carboxamide] was 24 mg/kg.
Consider `CCN1CCCC1CNC(=O)c1cc(S(N)(=O)=O)ccc1OC` (stereo not shown) [Sulpiride, reference compound], for which the “bioavailability in oral administration” value in series [5] is on record as “low bioavailability”. Also, the median effective dose (ED50) in the series with apomorphine [3] (po) turned out to be 330 mg/kg.
For `O=C(NC1CCN(CCc2c[nH]c3ccccc23)CC1)c1ccccc1` [indoramin, 3-[2-(4-benzamido-1-piperidyl)-ethyl]indole], the antihypertensive activity entry in series [6] is given as “relatively strong”; in series [2], “stronger antihypertensive activity”. In series [1], the antihistaminic activity result is on record as “exhibits antihistaminic activity”. Also, the apomorphine-antagonistic activity entry in the series on apomorphine [7] is “weak”. Besides, the anticonvulsant activity entry in series [8] is “anticonvulsant activity”.
